Test in all cases: growth of human tumour cells (NCI), 48 h
In assay [1] the test system is HOP-62 NSCLC.
Assay [2] concerns ACHN renal.
Assay [3] deals with SK-OV-3 ovarian.
The test system of assay [4] is CCRF-CEM leukemia.
For assay [5], the system named is MDA-MB-231 breast.
Assay [6] relates to SK-MEL-5 melanoma.
For assay [7], the system named is EKVX NSCLC.
For assay [8], the system named is HCC-2998 colon.
Assay [9] has as its system SR leukemia.
Assay [10] relates to SNB-19 CNS.

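Briefly, cells in 96-well plates were exposed to five compound concentrations for 48 h, and endpoints were estimated by linear interpolation. GI50 is the concentration that inhibits growth by half. Definition used: TGI = concentration required for complete inhibition of growth.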 Bounds are passed on as bounds.

Consider `CCCCCCCCCCCC(c1ccccc1)[N+](C)(C)C` (stereo not drawn), for which the GI50 in assay [1] was 1.52 µM; in assay [2], 4.93 µM; in [3], 1.86 µM; in assay [4], 1.41 µM; in [5] it was 1.68 µM; in [6], 0.874 µM. In [7], the GI50 is 1.45 µM. The TGI in assay [1] stood at 3.07 µM; in assay [2], 26.1 µM; in assay [3], 6.09 µM; in assay [4] it was 4.12 µM; in [5], 4.25 µM; in assay [6], 2.11 µM. In assay [7], this compound returned a TGI of 4.63 µM.
As for `O=c1c2ccccc2c(=O)n2n1-c1cccc(c1)CSSCc1cccc-2c1`, the GI50 in assay [8], in [1], in assay [2], in assay [9], in assay [10] and in assay [4] was above 100 µM throughout. For the same compound, the GI50 in assay [6] and in [7] was above 100 µM throughout. The TGI in [8], in assay [1], in [2], in assay [9], in assay [3] and in assay [10] was above 100 µM in each case. In addition, the TGI in assay [4], in assay [6] and in assay [7] was above 100 µM in each case.
With `O=C(O)c1ccccc1NS(=O)(=O)c1ccc(Cl)cc1`, the TGI in assay [8], in [1], in assay [2], in [3], in assay [10] and in [4] was above 100 µM throughout. The TGI in assay [6] and in assay [7] was above 100 µM throughout.
Regarding `CC(C)(Sc1cc(C(C)(C)C)c(O)c(C(C)(C)C)c1)Sc1cc(C(C)(C)C)c(O)c(C(C)(C)C)c1`, the TGI in assay [1], in [2], in assay [3], in assay [10], in [4] and in [5] was above 100 µM throughout. For the same compound, the TGI in [6] and in assay [7] was above 100 µM throughout.
As for `O=C(c1ccccc1)c1nc2ccc(Cl)cc2cc1C(Br)Br`, the TGI in assay [8] turned out to be 2.88 µM; in assay [1], 1.94 µM; in assay [2], 0.662 µM; in assay [9], 21.2 µM; in [3], 2.73 µM; in assay [10], 1.42 µM. Besides, the TGI in assay [4] turned out to be 7.11 µM; in assay [6], 2.01 µM; in assay [7], 1.69 µM.
Consider `CC1COS(=O)N1c1ccccc1` (stereo not drawn), for which the TGI in assay [8], in assay [1], in assay [2], in [3], in [4] and in assay [6] was above 100 µM throughout. In assay [7], this compound registered a TGI above 100 µM.
In the case of `O=C1c2ccccc2C(=O)N1C/C=N/NS(=O)(=O)c1cccc([N+](=O)[O-])c1`, the TGI in [8], in assay [1], in assay [2], in assay [9], in [10] and in [4] was above 100 µM in each case. For the same compound, the TGI in assay [6] and in assay [7] was above 100 µM each time.
As for `CSC(=Nc1ccc([N+](=O)[O-])cc1C#N)NC(=O)c1ccccc1`, the TGI in assay [8], in assay [1], in [2], in [9], in [10] and in assay [4] was above 100 µM each time. Further, the TGI in [6] and in assay [7] was above 100 µM each time.
On to `CCC(=O)N1C(=S)SC[C@H]1C(=O)OC`, for which the TGI in [8], in assay [1], in assay [2], in [9], in assay [3] and in assay [10] was above 100 µM each time. Also, the TGI in [4], in [6] and in [7] was above 100 µM each time.
For `CC[O-].CC[O-].[O-]c1ccccc1C=NC12CC3CC(CC(C3)C1)C2.[O-]c1ccccc1C=NC12CC3CC(CC(C3)C1)C2.[Ti+4]`, the GI50 in assay [8] was above 100 µM; in assay [1], above 100 µM; in [2], above 100 µM; in assay [9] it was 29.2 µM; in assay [3], above 100 µM; in assay [10], above 100 µM. Besides, the GI50 in assay [4] was 11 µM; in assay [6], 19.9 µM; in assay [7], above 100 µM. The TGI in assay [8], in assay [1], in assay [2], in assay [9], in assay [3] and in assay [10] was above 100 µM throughout. The TGI in assay [4], in assay [6] and in [7] was above 100 µM throughout.
As to `[O-]c1ccccc1C=NCCN=Cc1ccccc1[O-].[O]=[U+2]=[O]`, the GI50 in [8] was 27.9 µM; in assay [1] it was above 43.3 µM; in [2], 25.9 µM; in assay [9], 51.1 µM; in assay [3], 24.3 µM; in [10], 23.3 µM. Moreover, the GI50 is 35.3 µM in assay [4], 41.7 µM in assay [6] and 61.5 µM in assay [7]. Also, the TGI in [8] was 83.6 µM; in [1], above 67 µM; in assay [2], above 60.7 µM; in [9], above 100 µM; in assay [3] it was 57 µM; in assay [10], above 67.3 µM. In addition, the figures for the TGI in assay [4], in [6] and in [7] were above 100 µM, above 81.8 µM and above 100 µM, respectively.
As to `Cc1cccc(-c2nc(=S)[nH][nH]2)c1`, the TGI in assay [8], in [1], in assay [2], in [9], in assay [3] and in assay [10] was above 100 µM in each case. Further, the TGI in assay [4], in [6] and in assay [7] was above 100 µM in each case.
